Experimental data reported in patent publication US4681884A, “Diazine-ethenylphenyl oxamic acids and esters and salts thereof” (Boehringer Ingelheim Pharmaceuticals, Inc., priority 1985, dated 1987).
Counter-ions that a name gives are not always drawn.

Test system: Passive Cutaneous Anaphylaxis
Test: Passive Cutaneous Anaphylaxis (PCA) Assay, in vivo anti-allergic activity
Set-up: species or system rat
Details: 10 mg/kg, p.o.; oral administration 30 minutes before ovalbumin challenge; blued area vs control
Procedure: Passive Cutaneous Anaphylaxis (PCA) Assay
Representative compounds of the present invention were tested comparatively with cromoglycate to determine in vivo anti-allergic activity. The anti-allergic properties were ascertained in rats by the Passive Cutaneous Anaphylaxis test (PCA) essentially as described by Goose and Blair, Immunology, 16: 749-760 (1969).
Rat serum was diluted so that skin reactions with diameters between 10 and 15 mm in unsensitized rats were produced. The PCA test was performed in duplicate by injecting 0.1 ml of this antiserum dilution on each side of the shaved back of rats. Rats so treated were injected intravenously (i.v.) twenty-four hours later with 0.02 mg ovalbumin in 0.5 ml of 1% Evans Blue solution within five minutes after intravenous administration or 30 minutes after oral administration of the test compounds. Thirty minutes after the ovalbumin challenge the rats were killed by CO2 -asphyxiation, and the skin was reflected. The diameters, in millimeters, of the blued areas were measured and the mean diameter was determined. The circular area was calculated, and the mean area in square millimeters of the control group was considered as 100%. The results of the compound test groups were expressed as a percentage change from these control values. From dose response curves the dose reducing the size of the blued area by 50% (ED50) was estimated.

Compound | % Inhibition [%]
CCOC(=O)C(=O)Nc1cc(C=Cc2ccc(Cl)nn2)cc(NC(=O)C(=O)OCC)c1Cl [Example 37, Diethyl 2-(6-chloropyridazin-3-yl)ethenyl (4-chlorophenyl)-3,5dioxamate] | 54

Same assay, conditions: 10 mg/kg, p.o.; repeat test

Compound | % Inhibition (repeat) [%]
O=C(O)C(=O)Nc1cccc(C=Cc2ccnc(NC(=O)C(=O)O)n2)c1 [Example 29, 2-(2-Carboxycarbonylamino-pyrimidin-4-yl)ethenyl-phenyl-3 oxamic acid tetra-sodium salt di-hydrate] | 2

Same assay, conditions: Rattus norvegicus, 0.5 h; 3 mg/kg, i.v.; ovalbumin challenge within five minutes after intravenous administration

Compound | inhibition in vivo at 3 mg/kg [%]
O=C(O)C(=O)Nc1ccc(C=Cc2ccncn2)cc1 [Example 2, 2-(4-Pyrimidinyl)ethenylphenyl-4 oxamic acid ethanolamine salt] | 63

Same assay, conditions: Rattus norvegicus, 0.5 h; 10 mg/kg, p.o.; oral administration 30 minutes before ovalbumin challenge; blued area vs control

Compound | inhibition in vivo at 10 mg/kg [%]
CCOC(=O)C(=O)Nc1ccccc1C=Cc1ccncn1 [Example 6, Ethyl 2-(4-pyrimidinyl)ethenylphenyl-2 oxamate] | 20
CCOC(=O)C(=O)Nc1cc(C=Cc2ccncn2)ccc1OCCN(C)C [Example 11, Ethyl 2-(4-pyrimidinyl)ethenyl-4-N,N--dimethylaminoethoxyphenyl-3 oxamate] | 9
CCOC(=O)C(=O)Nc1cccc(C=Cc2ccnc(NC(C)=O)n2)c1 [Example 16, Ethyl 2-(2-acetamidopyrimidin-4-yl)ethenylphenyl-3 oxamate] | 42
CC(=O)Nc1nccc(C=Cc2cccc(NC(=O)C(=O)O)c2)n1 [Example 17, 2-(2-Acetamidopyrimidin-4-yl)ethenylphenyl-3 oxamic acid tromethane salt] | 37
O=C(O)C(=O)Nc1ccc(C=Cc2cccnn2)cc1 [Example 19, 2-(3-Pyridazinyl)ethenylphenyl-4 oxamic acid ethanolamine salt] | 0
CCOC(=O)C(=O)Nc1cccc(C=Cc2cc(NC(=O)C(=O)OCC)nc(C)n2)c1 [Example 26, Ethyl 2-(2-methyl-6-ethoxyoxalyl-aminopyrimidin-4-yl)-ethenylphenyl-3 oxamate hemihydrate] | 64
Cc1nc(C=Cc2cccc(NC(=O)C(=O)O)c2)cc(NC(=O)C(=O)O)n1 [Example 27, 2-(2-Methyl-6-carboxycarbonyl-aminopyrimidin-4-yl)-ethenylphenyl-3 oxamic acid di-tromethane salt] | 0
CCOC(=O)C(=O)Nc1cccc(C=Cc2ccnc(NC(=O)C(=O)OCC)n2)c1 [Example 28, Ethyl 2-(2-ethoxyoxalylamino-pyrimidin-4-yl)ethenyl-phenyl-3 oxamate] | 5
O=C(O)C(=O)Nc1cccc(C=Cc2ccnc(NC(=O)C(=O)O)n2)c1 [Example 29, 2-(2-Carboxycarbonylamino-pyrimidin-4-yl)ethenyl-phenyl-3 oxamic acid tetra-sodium salt di-hydrate] | 67
CCOC(=O)C(=O)Nc1ccc(C=Cc2nccnc2CC)cc1 [Example 30, Ethyl 2-(3-ethylpyrazin-2-yl)ethenylphenyl-4 oxamate] | 6
CCc1nccnc1C=Cc1ccc(NC(=O)C(=O)O)cc1 [Example 31, 2-(3-Ethylpyrazin-2-yl)ethenyl-phenyl-4 oxamic acid ethanolamine salt] | 15
CCOCCOC(=O)C(=O)Nc1ccc(C=Cc2cnccn2)cc1 [Example 32, Ethoxyethyl 2-(2-pyrazinyl)ethenylphenyl-4 oxamate] | 46
CCOCCOC(=O)C(=O)Nc1ccc(C=Cc2cc(N)nc(C)n2)cc1 [Example 33, Ethoxyethyl 2-(2-methyl-6-aminopyrimidin-4-yl)-ethenylphenyl-4 oxamate hemihydrate] | 52

Same assay, conditions: Rattus norvegicus, iv; ovalbumin challenge within five minutes; estimated from dose response curves; read-out: ED50 (dose reducing the size of the blued area by 50%)

Compound | ED50 [mg/kg]
Cc1nc(C=Cc2cccc(NC(=O)C(=O)O)c2)cc(NC(=O)C(=O)O)n1 [Example 27, 2-(2-Methyl-6-carboxycarbonyl-aminopyrimidin-4-yl)-ethenylphenyl-3 oxamic acid di-tromethane salt] | 0.03
O=C(O)C(=O)Nc1ccc(C=Cc2cnccn2)c(NC(=O)C(=O)O)c1 [Example 35, 2-(2-Pyrazinyl)ethenylphenyl-2,4 dioxamic acid di-ethanolamine salt] | 0.53
O=C(O)C(=O)Nc1ccc(C=Cc2ccncn2)c(NC(=O)C(=O)O)c1 [Example 36, 2-(4-Pyrimidinyl)ethenylphenyl-2,4 dioxamic acid di-ethanolamine salt] | 0.05

Same assay, conditions: Rattus norvegicus, po; 30 minutes before ovalbumin challenge; estimated from dose response curves; read-out: ED50 (dose reducing the size of the blued area by 50%)

Compound | ED50 [mg/kg]
CCOC(=O)C(=O)Nc1ccc(C=Cc2ccncn2)cc1 [Example 1, Ethyl 2-(4-pyrimidinyl)ethenylphenyl-4 oxamate] | 1.4
CCOC(=O)C(=O)Nc1ccc(C=Cc2ccnc(NC(=O)C(=O)OCC)n2)cc1 [Example 3, Ethyl 2-(2-ethoxyoxalylaminopyrimidin-4-yl)-ethenylphenyl-4 oxamate] | 10
CCOC(=O)C(=O)Nc1cccc(C=Cc2ccncn2)c1 [Example 4, Ethyl 2-(4-pyrimidinyl)ethenylphenyl-3 oxamate] | 2.8
O=C(O)C(=O)Nc1cccc(C=Cc2ccncn2)c1 [Example 5, 2-(4-Pyrimidinyl)ethenylphenyl-3 oxamic acid ethanolamine salt] | 12.3
O=C(O)C(=O)Nc1ccccc1C=Cc1ccncn1 [Example 7, 2-(4-Pyrimidinyl)ethenylphenyl-2 oxamic acid ethanolamine salt] | 8
CCOC(=O)C(=O)Nc1ccc(C=Cc2ccncn2)c(O)c1 [Example 8, Ethyl 2-(4-pyrimidinyl)ethenyl-2-hydroxyphenyl-4 oxamate] | 4.5
CCOC(=O)C(=O)Nc1ccc(C=Cc2ccncn2)c(NC(=O)C(=O)OCC)c1 [Example 12, Diethyl 2-(4-pyrimidinyl)ethenylphenyl-2,4-dioxamate] | 2
CCOC(=O)C(=O)Nc1ccc(C=Cc2cc(OCC)nc(OCC)n2)cc1 [Example 13, Ethyl 2-(2,6-diethoxypyrimidin-4-yl)ethenylphenyl-4 oxamate] | 30
CCOC(=O)C(=O)Nc1ccc(C=Cc2cc(N)nc(C)n2)cc1 [Example 14, Ethyl 2-(2-methyl-6-aminopyrimidin-4-yl)ethenyl phenyl-4 oxamate] | 10
CCOC(=O)C(=O)Nc1ccc(C=Cc2cc(C)ncn2)cc1 [Example 15, Ethyl 2-(6-methylpyrimidin-4-yl)ethenylphenyl-4 oxamate] | 1.1
CCOC(=O)C(=O)Nc1ccc(C=Cc2cccnn2)cc1 [Example 18, Ethyl 2-(3-pyridazinyl)ethenylphenyl-4 oxamate] | 1
CCOC(=O)C(=O)Nc1ccc(C=Cc2cnccn2)cc1 [Example 20, Ethyl 2-(2-pyrazinyl)ethenylphenyl-4 oxamate] | 4.6
O=C(O)C(=O)Nc1ccc(C=Cc2cnccn2)cc1 [Example 21, 2-(2-Pyrazinyl)ethenylphenyl-4 oxamic acid sodium salt] | 10
CCOC(=O)C(=O)Nc1cccc(C=Cc2cnccn2)c1 [Example 22, Ethyl 2-(2-pyrazinyl)ethenylphenyl-3 oxamate] | 4
O=C(O)C(=O)Nc1cccc(C=Cc2cnccn2)c1 [Example 23, 2-(2-Pyrazinyl)ethenylphenyl-3 oxamic acid ethanolamine salt] | < 1
CCOC(=O)C(=O)Nc1ccc(C=Cc2cc(NC(=O)C(=O)OCC)nc(C)n2)cc1 [Example 24, Ethyl 2-(2-methyl-6-ethoxyoxalylaminopyrimidin-4-yl)-ethenylphenyl-4 oxamate] | 0.3
Cc1nc(C=Cc2ccc(NC(=O)C(=O)O)cc2)cc(NC(=O)C(=O)O)n1 [Example 25, 2-(2-Methyl-6-carboxycarbonylaminopyrimidin-4-yl)-ethenylphenyl-4 oxamic acid hydrate diethanolamine salt] | 4
CCOC(=O)C(=O)Nc1cccc(C=Cc2cc(NC(=O)C(=O)OCC)nc(C)n2)c1 [Example 26, Ethyl 2-(2-methyl-6-ethoxyoxalyl-aminopyrimidin-4-yl)-ethenylphenyl-3 oxamate hemihydrate] | < 10

Same assay, conditions: p.o.; 30 minutes before ovalbumin challenge; estimated from dose response curves

Compound | ED50 (dose reducing the size of the blued area by 50%)
O=C(O)c1cc(=O)c2c(OCC(O)COc3cccc4oc(C(=O)O)cc(=O)c34)cccc2o1 [Cromoglycate] | Inactive
Ethyl 2-(4-pyrimidinyl)ethenyl-6-chlorophenyl-3 oxamate [Example 9] | 2 mg/kg, p.o.

Test system: not given
Test: not given
Details: given orally; cited from earlier work

Compound | antiallergic activity when given orally
O=C(O)c1cc(=O)c2c(OCC(O)COc3cccc4oc(C(=O)O)cc(=O)c34)cccc2o1 [Cromoglycate] | not active

Same assay, conditions: inhalation as a solid; cited from earlier work

Compound | bronchodilator when given by inhalation as a solid
O=C(O)c1cc(=O)c2c(OCC(O)COc3cccc4oc(C(=O)O)cc(=O)c34)cccc2o1 [Cromoglycate] | effective
